Three molecules from patent US20240181049A1, “HARNESSING THE POWER OF MICROBIOTA AND METABOLITES FOR THE TREATMENT OF CANCER” (UTI LIMITED PARTNERSHIP, priority 2019, published 2024) can be followed below.

Format in all cases: cell-based, mice
For experiment [1], the system named is naïve OVA323-339-specific OT-II CD4^+ T cells. The experiment can be described thus: BMDC / naive OT-II CD4+ T cell co-culture, Th1 differentiation. The settings on record: with IFN-γ. The source says:
(§1) FIG. 4A-4K: Effect of inosine on T cell differentiation and dependency on classical dendritic cells of ICB therapy efficacy. (a) Scatter plot of untargeted metabolomics data in the serum of anti-CTLA-4 treated, tumor-bearing B.p. monocolonized compared to C.sp. monocolonized and germ-free (GF) mice. Grey circles or dotted grey circles depict inosine or inosine fragments/adducts, respectively. […] (c) Naïve CD4^+ T cells were co-cultured with bone marrow derived dendritic cells and IFN-γ. Quantification of T-bet^+CD3ε^+CD4^+ T cells 48 hours after co-culture in the presence or absence of inosine, A2A receptor inhibitor (ZM241385), cell permeable cAMP (db-cAMP) and protein kinase A inhibitor (RP-8-CPT-CAMPS). (d) Same as (c) without IFN-γ. (e) Representative plot and quantification (left and right panel) of phospho-CREB (Ser133) levels in naïve CD4^+ T cells cultured with anti-CD3/anti-CD28 coated beads for 1 hour in the presence or absence of inosine. (f) Schematic overview of experimental setup to deplete classical dendritic cells during MC38 tumor challenge and anti-CTLA-4 treatment. Intratumoral (g) frequency of CD8^+ T cells (h) IFN-γ^+CD8^+ T cells. (i and j) same as (g and h), but CD4^+ T cells and (k) tumor weight at […]. Data are mean±SEM and pooled from two individual experiments (a-b) n=5-8 samples/group (c-e) 10-15 biological replicates/group (f-k) 10 mice/group. *, P<0.05; **, P<0.01; ***, P<0.001; ****, P<0.0001
Bone marrow derived dendritic cells (BMDCs) were generated from flushed bone marrow cells, maintained in RPMI-1640 (Sigma) supplemented with 10% FBS, 50 μm 2-Mercaptoethanol (Sigma) 100 units/ml penicillin, 100 μg/ml streptomycin sulfate and 20 ng/ml rm GM-CSF (R&D). Medium was exchanged after 48 hours and 72 hours. 5 days after culture, a magnetic cell sorting step was performed to enrich for CD11c^+ cells (Miltenyi Biotec). CD11c^+ cells were seeded in 96 flat bottom wells and pulsed with 20 ng/ml OVA323-339 and 100 ng/ml LPS (both Sigma) for 18 hours. In some conditions BMDCs were also cultured with 10 ng/ml rmIFN-γ (R&D).
Negative selection magnetic cell sorting (Miltenyi Biotec) was used to enrich naïve OT-II CD4^+ T cells. Naïve OT-II CD4^+ T cells were then co-cultured with BMDCs at a ratio of 2:1 or stimulated with anti-CD3/anti-CD28 T cell activation beads (Thermofisher) at a ratio of 1:1 for 48 hours prior to restimulation with PMA/lonomycin in the presence of Brefeldin-A and analysis (see Single cell preparation and flow cytometry for details). In some conditions cells were additionally cultured with various combinations of 2 μg/ml anti-CTLA-4, 100 μM db-cAMP (Sigma), 5 μM ZM 241385 (Sigma), 300 μM Rp-8-CPT-CAMPS (Cayman Chemical) or 2 mM inosine (Sigma) as described previously (He et al., 2017; Yao et al., 2013).

In experiment [2] the test system is A2AR-deficient CD4^+ T cells. The experiment can be described thus: A2AR-deficient naive CD4+ T cells with anti-CD3/anti-CD28 coated beads. How it is done:
FIG. 16A-16J: Context dependent effect of inosine on Th1 T cell differentiation. (a) Naïve CD4^+ T cells were co-cultured with bone marrow derived dendritic cells without IFN-γ. Quantification of T-bet^+CD3e^+CD4^+ T cells 48 hours after co-culture in the presence or absence of inosine and anti-CTLA-4, as indicated. (b) Naïve CD4^+ T cells were cultured anti-CD3/anti-CD28 coated beads at a ratio of 1:1 without IFN-γ for 48 hours. Representative plot and quantification of IL12Rβ2 surface expression on CD4^+ T cells in the presence or absence of inosine (left and right panel). (c) Quantification of T-bet^+CD3e^+CD4^+ T cells 48 hours after co-culture in the presence or absence of inosine, db-cAMP and anti-CTLA-4 as indicated. […] Quantification of T-bet^+CD3e^+CD4^+ T cells 48 hours after co-culture in the presence or absence of inosine or db-cAMP (e) Representative plot and quantification (left and right panel) of pCREB expression of anti-CD3/anti-CD28 bead co-cultured CD4^+ T cells in the presence or absence of inosine or db-cAMP 1 hour after stimulation. […] Il12rb2 and Ifng gene transcripts (normalized to Gapdh) were evaluated 24 and 48 hours following inosine (1 mM) stimulation. […] Analysis through quantitative PCR assay (h) Naïve CD4^+ T cells were cultured with anti-CD3/anti-CD28 coated beads at a ratio of 1:1 without IFN-γ for 24 hours. […]

The next experiment relates to naïve CD4^+ T cells. The experiment can be described thus: Naive CD4+ T cells with anti-CD3/anti-CD28 coated beads. The following applies: levels of adenosine in the serum.
Source text: as §1
FIG. 16A-16J: Context dependent effect of inosine on Th1 T cell differentiation. (a) Naïve CD4^+ T cells were co-cultured with bone marrow derived dendritic cells without IFN-γ. Quantification of T-bet^+CD3e^+CD4^+ T cells 48 hours after co-culture in the presence or absence of inosine and anti-CTLA-4, as indicated. (b) Naïve CD4^+ T cells were cultured anti-CD3/anti-CD28 coated beads at a ratio of 1:1 without IFN-γ for 48 hours. Representative plot and quantification of IL12Rβ2 surface expression on CD4^+ T cells in the presence or absence of inosine (left and right panel). (c) Quantification of T-bet^+CD3e^+CD4^+ T cells 48 hours after co-culture in the presence or absence of inosine, db-cAMP and anti-CTLA-4 as indicated. (d) Naïve, A2AR-deficient CD4^+ T cells were cultured with anti-CD3/anti-CD28 coated beads at a ratio of 1:1 without IFN-γ. Quantification of T-bet^+CD3e^+CD4^+ T cells 48 hours after co-culture in the presence or absence of inosine or db-cAMP (e) Representative plot and quantification (left and right panel) of pCREB expression of anti-CD3/anti-CD28 bead co-cultured CD4^+ T cells in the presence or absence of inosine or db-cAMP 1 hour after stimulation. Analysis through flow cytometry. (f and g) Naïve, wild type CD4^+ T cells were cultured with anti-CD3/anti-CD28 coated beads at a ratio of 1:1. Il12rb2 and Ifng gene transcripts (normalized to Gapdh) were evaluated 24 and 48 hours following inosine (1 mM) stimulation. Expression was normalized to cells treated with medium. Analysis through quantitative PCR assay (h) Naïve CD4^+ T cells were cultured with anti-CD3/anti-CD28 coated beads at a ratio of 1:1 without IFN-γ for 24 hours. Then inosine or vehicle was added at the indicated concentrations for another 48 hours before T cell differentiation and activation was assessed. (i) Adenosine concentrations in the duodenal-, jejunal- or cecal content of B.p. monocolonized mice and in the serum of B.p. or C.sp. monocolonized anti-CTLA-4 treated mice. (j) Naïve CD4^+ T cells were cultured with anti-CD3/anti-CD28 coated beads at a ratio of 1:1 without IFN-γ for 24 hours. Adenosine or was added then in the indicated concentrations for another 48 hours followed by T cell differentiation and activation was assessed through flow cytometry. […]

On to `Nc1nc(NCCc2ccc(O)cc2)nc2nc(-c3ccco3)nn12` [ZM241385, reference compound], for which, in experiment [1] (inhibitor added (5 μM ZM 241385; 300 μM Rp-8-CPT-CAMPS)), the “effect of inosine on Th1 differentiation” value is on record as “completely abrogated the effect of inosine”.
With `CCCC(=O)Nc1ncnc2c1ncn2[C@@H]1O[C@@H]2COP(=O)(O)O[C@H]2[C@H]1OC(=O)CCC` [db-CAMP, reference compound], in experiment [1] (100 μM db-cAMP), the Th1 differentiation entry is “restored Th1 differentiation and bypassed the need for inosine”. For the same molecule, the “Th1 differentiation and phosphorylation of CREB” value in experiment [2] is “increased Th1 differentiation and phosphorylation of CREB in A2AR-deficient T cells”.
Consider `Nc1ncnc2c1ncn2[C@@H]1O[C@H](CO)[C@@H](O)[C@H]1O` [adenosine, reference compound], for which the “Th1 activation and effector function, adenosine dose response” value in the experiment with naïve CD4^+ T cells was “insufficient to promote Th1 activation and effector function”.
